# Key:
# [1] = tested on: lung epithelial- and macrophage-cell lines stimulated with P. aeruginosa LPS; test: LPS-induced production of pro-inflammatory cytokines, overall result; format: cell-based, Human
# Method: The anti-inflammatory potential of lin-SB056-1 and (lin-SB056-1)2-K was assessed by evaluating their ability to reduce LPS-induced production of pro-inflammatory cytokines by A549 cells and THP-1 macrophages. In order to ensure cytokine production, cell monolayers were stimulated with LPS from P. aeruginosa serotype 10 (purified by phenol extraction; Sigma-Aldrich, Milano, Italy) at a final concentration of 10 ng/mL (THP-1) and 800 ng/mL (A549). LPS concentrations used in the experiments were chosen based on preliminary assays aimed at identifying the minimum dose of the molecule able to stimulate cytokine production after 4 h of exposure. […] Following incubation, cell culture supernatants were collected, filter sterilized (0.22 µm) and employed for the quantification of cytokines and the assessment of cell viability.
# (§1) Different pro-inflammatory cytokines (i.e., IL-1β, IL-6, IL-8 and TNF-α) were quantified in cell culture supernatants through a bead-based multiplex immunoassay (LEGENDplex multi-analyte flow assay kit; BioLegend, San Diego, CA, USA) following manufacturer’s instructions. […] Following consecutive washing steps, the beads were resuspended in the LEGENDplex wash buffer and the samples were analyzed by flow cytometry (BD Accuri C6 flow cytometer; BD Biosciences, Mountain View, CA, United States). […]
# P. aeruginosa [2] = details: in vivo-like models of lung infection; cited from earlier work
# Source text: The global issue of anti-microbial resistance coupled with the lack of new treatments for bacterial infections has stimulated interest in the use of AMPs for therapeutic purposes. Due to their unique mechanism(s) of action and wide spectrum of biological activities, AMPs are emerging as a promising alternative to conventional anti-microbial agents for the management of antibiotic-resistant and biofilm-associated infections. Although mainly intended for topical use due to potential toxicity and reduced stability under physiological conditions, many different peptides with anti-micro ...
# A549 cells [3] = test: Cytokine production by A549 cells stimulated with whole P. aeruginosa PAO1; format: cell-based, Human; details: 4 h, 37 °C, 5% CO2
# Method: The reference strain P. aeruginosa PAO1 (ATCC 15692) was used in this study. For the preparation of stock cultures, bacteria were grown in Tryptone Soy Broth (TSB; Thermo Fisher Scientific, Waltham, MA, USA) until mid-exponential phase, then aliquoted and stored at −80 °C. For the preparation of the inoculum, a volume of 50 μL of the frozen culture was inoculated in 5 mL of TSB, and subsequently incubated for 18 h at 37 °C. […]
# In some experiments, the ability of (lin-SB056-1)2-K to inhibit cytokine production by A549 cells stimulated with whole P. aeruginosa (PAO1 strain) was assessed. […]
# as §1, with “States). Data were acquired with the BD Accuri C6 software (BD Biosciences) (300 events per analyte) and analyzed with the LEGENDplex software (BioLegend).” for “States).”
# A549 cells [4] = test: LPS-induced cytokine production by A549 cells (bead-based multiplex immunoassay); format: cell-based, Human; details: 4 h, 37 °C
# Method: Human non-small-cell lung adenocarcinoma A549 cells (ATCC CCL-185; LGC Standards, Milan, Italy) and human monocytic THP-1 cells (ATCC TIB-202; LGC Standards) were cultured in tissue culture flasks in Dulbecco’s modified essential medium (DMEM) (Euroclone, Milan, Italy) and RPMI 1640 medium (Euroclone), respectively. Both media were supplemented with 2 mM L-glutamine (Euroclone) and 10% heat-inactivated fetal bovine serum (FBS; Euroclone). Confluent monolayers were detached from the culture flask with 0.25% trypsin/1 mM EDTA solution (Euroclone), suspended in complete culture medium and seeded into flat-bottom 96-well plates at a final density of 1 × 10^4 cells/well (A549) and 2 × 10^4 cells/well (THP-1). A549 cells were cultured for 24 h at 37 °C, 5% CO2 in order to allow adhesion and formation of semi-confluent monolayers. THP-1 cells were cultured for 3 days (37 °C, 5% CO2) in the presence of 100 nM TPA (Sigma-Aldrich, St. Louis, MO, USA) to induce their differentiation into macrophage-like cells.
# The anti-inflammatory potential of lin-SB056-1 and (lin-SB056-1)2-K was assessed by evaluating their ability to reduce LPS-induced production of pro-inflammatory cytokines by A549 cells and THP-1 macrophages. In order to ensure cytokine production, cell monolayers were stimulated with LPS from P. aeruginosa serotype 10 (purified by phenol extraction; Sigma-Aldrich, Milano, Italy) at a final concentration of 10 ng/mL (THP-1) and 800 ng/mL (A549). LPS concentrations used in the experiments were chosen based on preliminary assays aimed at identifying the minimum dose of the molecule able to stimulate cytokine production after 4 h of exposure. In order to assess the inhibitory activity of peptides on cytokine production, cell monolayers were incubated in complete culture medium in the presence of LPS and different concentrations of lin-SB056-1 and (lin-SB056-1)2-K (4.8 to 19.25 μM) for 4 h (37 °C, 5% CO2). Cells incubated in the presence of LPS alone were used as positive (cytokine production) control. Following incubation, cell culture supernatants were collected, filter sterilized (0.22 µm) and employed for the quantification of cytokines and the assessment of cell viability.
# Different pro-inflammatory cytokines (i.e., IL-1β, IL-6, IL-8 and TNF-α) were quantified in cell culture supernatants through a bead-based multiplex immunoassay (LEGENDplex multi-analyte flow assay kit; BioLegend, San Diego, CA, USA) following manufacturer’s instructions. Briefly, 25 μL of cytokine standard or cell supernatant were incubated with 25 μL of anti-cytokine conjugated beads into V-bottom 96-well plates for 2 h. Following incubation, the plates were washed and subsequently incubated with the detection antibody (25 μL/well) for 1 h. A volume of 25 μL of streptavidin-phycoerythrin was added to each well, and the plates were incubated for another 30 min in the dark. Following consecutive washing steps, the beads were resuspended in the LEGENDplex wash buffer and the samples were analyzed by flow cytometry (BD Accuri C6 flow cytometer; BD Biosciences, Mountain View, CA, United States). Data were acquired with the BD Accuri C6 software (BD Biosciences) (300 events per analyte) and analyzed with the LEGENDplex software (BioLegend). Minimum detectable concentration (MDC+2STDEV) for the tested cytokines were as follows: IL-1β, 0.65 + 0.47 pg/mL; IL-6, 0.97 + 1.46 pg/mL; IL-8, 1.90 + 0.65 pg/mL; TNF-α, 0.88 + 0.27 pg/mL.
# P. aeruginosa [5] = details: 3-D lung epithelial cell model, cited from earlier work
# Source text: (§2) In our previous work, we explored different strategies to enhance the anti-bacterial and anti-biofilm activity of the semi-synthetic peptide lin-SB056-1 [12] in physiologically relevant, host-mimicking conditions that are known to interfere with the stability and efficacy of AMPs.
# [6] = tested on: reference strain and CF lung isolates of P. aeruginosa; details: cell culture medium; cited from earlier work
# Source text: as §2
# [7] = 9.6 μM peptide, P. aeruginosa serotype 10 LPS 800 ng/mL, 5% CO2, complete culture medium, mean of at least three independent experiments, vs peptide-untreated control
substance,measurement,setting,value
"[KWKIRVRLSA]2-K [(lin-SB056-1)2-K, dendrimeric derivative of lin-SB056-1]",anti-inflammatory effect compared to monomeric counterpart,[1]; LPS and/or P. aeruginosa stimulation,superior anti-inflammatory effect compared to its monomeric counterpart
same,"decrease in LPS-induced production of pro-inflammatory cytokines (IL-1β, IL-6 and IL-8)","[1]; lung epithelial- and macrophage-cell lines, P. aeruginosa LPS",up to 80%
same,anti-bacterial and anti-biofilm activity in in vivo-like models,P. aeruginosa [2],remarkable anti-bacterial and anti-biofilm activity
same,reduction in IL-6 levels,"A549 cells [3]; 9.6 μM peptide, PAO1 fixed with 4% paraformaldehyde, 5 × 10^6 CFU/well, statistically significant, mean of at least three independent experiments",up to 70%
same,effect on IL-8 release,"A549 cells [3]; 9.6 and 19.25 μM peptide, fixed PAO1 5 × 10^6 CFU/well",no evident effect
same,reduction of IL-6 levels,A549 cells [4]; [7],≤ 80%
same,reduction of IL-8 levels,A549 cells [4]; [7],≤ 80%
same,effect on IL-6 release,"A549 cells [4]; LPS 800 ng/mL, peptide 4.8 to 19.25 μM",significant reduction
same,effect on IL-8 release,"A549 cells [4]; LPS 800 ng/mL, peptide 4.8 to 19.25 μM, lin-SB056-1 decrease at 19.25 μM (highest tested)",significant reduction
same,reduction in the number of biofilm-forming bacteria,P. aeruginosa [5]; 19.25 µM,≤ 99.9%
same,anti-biofilm activity,P. aeruginosa [5]; compared to lin-SB056-1 and lin-SB056-1/EDTA,stronger anti-biofilm activity compared to both lin-SB056-1 and the lin-SB056-1/EDTA combination
same,MIC (Minimal Inhibitory Concentration),[6],2.4 to 9.6 µM
same,fold lower MIC compared to lin-SB056-1,[6],4 to 16 fold
